Results reported in patent publication US9024069B2, “NONOate derivatives and uses thereof” (Ironwood Pharmaceuticals, priority 2012, dated 2015).

Tests used:
[1] = Nitric oxide (NOx) level after oral dosing in male rats, Nitrate/Nitrite Colorimetric Assay; type: in vivo, rat; conditions: male SD rats, oral gavage; Fenofibrate 24.8 mg/kg, compounds 6, 7, 8 at 32, 34, 33.8 mg/kg; FIG. 2
Experimental: 15 male SD (Sprague Dawley) rats were allowed to acclimate for at least 3 days. Fenofibrate, compounds 6, 7, and 8 were administered via oral gavage at molar equivalent doses of 24.8, 32, 34, 33.8 mg/kg, respectively. Animals were fasted overnight and had their food replaced 4 hours after dosing. Compounds were formulated in 300 μL of 100% PEG400. Animals were euthanized under CO2 at the 24 hr time point. Plasma samples were taken for analytical determination of fenofibric acid from compounds in vacutainers containing sodium fluoride. Serum samples were taken for nitric oxide level determination in BD serum collection tubes.
Fenofibric acid was extracted from the plasma using an acetonitrile protein precipitation method. Samples were run on a Waters Aquity TQD LC-MS/MS and analyzed using the MassLynx software. Nitric Oxide levels were measured in serum using a Nitrate/Nitrite Colorimetric Assay Kit from Caymen Chemicals.

[2] = test system: rat aortic ring; assay: Thoracic aortic rings assay (vasorelaxation of phenylephrine-contracted rings); type: ex vivo tissue; conditions: rat thoracic aortic rings contracted with 100 ng/mL phenylephrine; cumulative dosing; FIG. 3
Experimental: Thoracic aortic rings were dissected from anesthetized (isoflurane) male Sprague-Dawley rats weighing 275-299 g. Tissues were immediately transferred to ice-cold Krebs-Henseleit solution, which had been aerated with 95% O2 and 5% CO2 for 30 minutes. Following removal of connective tissue, aortic sections were cut into 4 rings (˜2 mm each) and suspended on 2 L-shaped hooks, with one hook fixed at the bottom of the tissue bath (Schuler Organ Bath, Harvard Apparatus) and the other connected to a force transducer (F30 Force Transducer, Harvard Apparatus). Baths contained Krebs Henseleit solution (10 mL) heated to 37° C. and aerated with 95% O2 and 5% CO2. Rings were brought to an initial tension of 0.3-0.5 g and gradually raised to a resting tension of 1.0 g over 60 minutes. Rings were rinsed with Krebs Henseleit solution (heated to 37° C. and aerated with 95% 02 and 5% CO2) at 15 minute intervals until a stable baseline was obtained. Rings were considered to be stable after a resting tension of 1.0 g was maintained (for approximately 10 minutes) without need for adjustment. Rings were then contracted with 100 ng/mL phenylephrine by adding 100 uL of a 10 μg/mL phenylephrine stock solution. Tissues achieving a stable contraction were then treated in a cumulative, dose dependent manner with test compounds prepared in dimethylsulfoxide (DMSO). In some cases, tissues were rinsed three times over a 5 minute period with Krebs-Heinseleit's solution (heated to 37° C. and aerated with 95% O2 and 5% CO2), allowed to stabilize at baseline, and then used for characterization of other test articles or DMSO effects. All data were collected using the HSE-ACAD software provided by Harvard Apparatus. Percent relaxation effects were calculated in Microsoft Excel using the recorded tension value of 100 ng/mL phenylephrine treatment as 0% inhibition and treatment with 100 μM 3-isobutyl-1-methylxanthine as 100% inhibition. EC50 values were calculated from concentration-response curves generated with GraphPad Prism Software. […]

[3] = test system: normotensive rats; assay: Rat normotensive blood pressure model; type: in vivo; conditions: normotensive conscious SD rats, single oral dose 30 mg/kg, 6 hours monitoring; FIG. 6
Description: 36 male SD rats were allowed to acclimate for at least 3 days. After conditioning the rats were arterially cannulated and assigned to 4 treatment groups, with the goal of achieving n=6/group.
After the acclimation period, the rats were briefly anesthetized with inhaled isoflurane and implanted a small bore femoral artery cannula to permit CV monitoring under conscious unrestrained conditions as conducted in prior studies. 18 rats were cannulated per day on 2 consecutive days and allowed 2 days of post-operative recovery prior to CV testing. 12 rats per day were monitored for each of 2 consecutive daily test sessions.
On the morning of the test sessions, the rats were placed in individual bell jars and their femoral artery cannulas were attached to pressure transducers. CV monitoring consisted of continuously recording mean arterial pressure (MAP) and spot checking heart rate (HR; every 5 to 7 minutes) prior to and for 6 hours after a single oral treatment as in previous studies.
Also on the morning of testing, 4 oral treatments in 500 μl of 100% PEG 400 were formulated. The rats were allowed about 1 hour of equilibration prior to dosing. Once suitably equilibrated, each rat was dosed with an oral vehicle or a drug, delivered by standard gavage. The CV recording was continued over the 6-hour post-treatment interval, occasional small flushes of heparinized saline (˜0.1 mL; 20 units/mL) were administered into their arterial catheters in order to maintain recording fidelity.
At the conclusion of the 6-hour CV monitoring interval, a terminal ˜0.6 mL arterial blood sample was taken and the serum or plasma was processed.

[4] = test system: high fat, high cholesterol diet rats; assay: Rat high fat, high cholesterol diet model (VAP lipid analysis); type: in vivo; conditions: HFHC diet rats, once daily p.o. for seven days, compound 8 at 3, 10, 30 mg/kg, Fenofibrate at 2.2, 7.3, 22 mg/kg; for very low-density lipoprotein (VLDL) cholesterol: FIG. 4; for HDL: FIG. 5
Experimental: Compounds were tested for effects on cholesterol and lipid profiles in a rat high fat diet model for example as described in Ghibaudi et al. (2002) Obes Res 10:956-63, Ricci and Levin (2003) Am J Physiol Regul Integr Comp Physiol 285:R610-8, and Gao et al. (2002) 936:87-90. Alternatively, animals were fed either a normal diet or a chow supplemented with added fat and/or cholesterol as described in Krause et al (1994) Pharm Res VoI 29, No. 4, Nishina (1993) J of Lipid Res vol 43. and Gajda et al. (2007) Animal Lab News. Based on the specific chows used in these reports, animals were fed a diet consisting of 40% fat, 1% cholesterol, and 0.5% cholic acid (catalog #D01061201, Research Diets, New Brunswick, N.J. 08901).
After at least a week on this diet, animals (6-8/group) are dosed once daily perorally with 500 uL test compounds in PEG 400. Groups are dosed for at least one week before whole blood samples are taken for analysis. Blood serum is analyzed using Vertical Auto Profile (VAP; Atherotech, Inc., Birmingham, Ala.) analysis similar to as described in Kulkarni (2006) Clin Lab Med 26:787-802.
Fenofibrate (Sigma—Cat# F6020-5G, Lot#017K1401) was tested in this assay at 2.2, 7.3 and 22 mg/kg which were equimolar equivalents (for the fenofibric acid moiety) of Compound 8 dosed at 3, 10 and 30 mg/kg. In these experiments animals (n=6 per group) were fed a high fat high cholesterol chow (HFHC; 40% fat, 1% cholesterol, 0.5% cholic acid) diet for one week before test compound administration. Animals received either vehicle only (PEG 400) or test compound (compound 8 at 3, 10 or 30 mg/kg or fenofibrate at 2.2, 7.3 or 22 mg/kg) for seven days before whole blood samples were taken for analysis.

[5] = test system: L-NAME hypertensive rats; assay: Rat L-NAME induced hypertension blood pressure model; type: in vivo; conditions: oral gavage, 6 hours monitoring, compound 8 at 10, 30, 60 mg/kg, Fenofibrate 49.6 mg/kg, FIGS. 7 and 8
Experimental: L-NAME induced hypertension model was carried out at Pharmoptima. Based on the rats' projected average daily water intake, the NO synthase inhibitor L-NAME, L-NG-nitroarginine methyl ester, which induces hypertension, were dissolved in their drinking water so that the rats self-administered tested compounds for 2 weeks prior to study at the targeted daily L-NAME dosage. The rats' L-NAME/water solution was reformulated every other day to insure potency.
After 2 weeks of oral L-NAME preconditioning, the rats were anesthetized with inhaled isoflurane (3-4% in oxygen) and implanted a small bore femoral artery catheter to permit cardiovascular (CV) monitoring under conscious unrestrained conditions. A total of 36 rats (18 rats/day on two consecutive days) were prepared. The catheters were sealed with sodium heparin to maintain patency.
Allow 2 days of post-operative recovery prior to study, allowing full access to food and water (containing dissolved L-NAME) water.
On the study treatment day, […] (n=6×5 treatments) were set up in bell jars under routine non-fasted conditions. Start recording mean arterial pressure (MAP) and heart rate (HR) from this first set of cannulated rats as per previous studies conducted by PharmOptima. Once stable, the rats were dosed by oral gavage. CV data were recorded from the rats over the ensuing 6 hours. 3 arterial blood samples were taken per rat and the harvested plasma samples were frozen.

nitric oxide levels in the plasma upon dosing [1] | Compound | vasorelaxant properties [2] | blood pressure [3] | very low-density lipoprotein (VLDL) cholesterol [4] | HDL [4] | blood pressure [5]
robust increase in nitric oxide levels | CN(CCO)/[N+]([O-])=N/OCOC(=O)C(C)(C)Oc1ccc(C(=O)c2ccc(Cl)cc2)cc1 [Compound 6, (Z)-1-((2-(4-(4-chlorobenzoyl)phenoxy)-2-methylpropanoyloxy)methoxy)-3-(2-hydroxyethyl)-3-methyltriaz-1-ene 2-oxide] | potent vasorelaxant properties in the nM range | lowering blood pressure |  |  | 
robust increase in nitric oxide levels | CN(CCCCO)/[N+]([O-])=N/OCOC(=O)C(C)(C)Oc1ccc(C(=O)c2ccc(Cl)cc2)cc1 [Compound 7, (Z)-1-((2-(4-(4-chlorobenzoyl)phenoxy)-2-methylpropanoyloxy)methoxy)-3-(4-hydroxybutyl)-3-methyltriaz-1-ene 2-oxide] |  | lowering blood pressure |  |  | 
robust increase in nitric oxide levels | CC(C)(Oc1ccc(C(=O)c2ccc(Cl)cc2)cc1)C(=O)OCO/N=[N+](\[O-])N1CCC[C@H]1CO [Compound 8, (S,Z)-2-((2-(4-(4-chlorobenzoyl)phenoxy)-2-methylpropanoyloxy)methoxy)-1-(2-(hydroxymethyl)pyrrolidin-1-yl)diazene oxide] | potent vasorelaxant properties in the nM range | lowering blood pressure | decreases in very low-density lipoprotein (VLDL) cholesterol | dose related increases in HDL | lowered blood pressure in an L-NAME model of hypertension in a dose responsive manner
no increase in nitric oxide | CC(C)OC(=O)C(C)(C)Oc1ccc(C(=O)c2ccc(Cl)cc2)cc1 [Fenofibrate, 2-[4-(4-chlorobenzoyl)phenoxy]-2-methyl-propanoic acid, 1-methylethyl ester, reference compound] |  |  | decreases in VLDL | increases in HDL | did not lower blood pressure
 | O=[N+]([O-])O[C@H]1CO[C@H]2[C@@H]1OC[C@H]2O[N+](=O)[O-] [ISDN, isosorbide dinitrate, reference compound] | active in this assay as a vasorelaxant in the micromolar range |  |  |  | moderate blood pressure lowering effect
